Source: PMC5448077, “Development of an orally available inhibitor of CLK1 for skipping a mutated dystrophin exon in Duchenne muscular dystrophy” (Scientific Reports, 2017)

Experiments:
Assay in all cases: biochemical
TNK1 = TNK1 (Homo sapiens, UniProt Q13470)
Summary of the method: (§1)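 Human kinases phosphorylating kinase-specific synthetic peptides, assayed by mobility shift (MSA) or IMAP fluorescence polarization, in 20 mM HEPES pH 7.5, 0.01% Triton X-100, 2 mM DTT with substrate/ATP-metal. Reactions ran 1 or 5 h at room temperature; activity = P/(P + S) from product and substrate peak heights.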

CDC2/CycB1 = target: T1, CDC2/CycB1 (Homo sapiens, UniProt P06493)
T1 construct: gene CDK1
Summary of the method: as §1

FES = FES (Homo sapiens, UniProt P07332)
Summary of the method: as §1

LATS2 = LATS2 (Homo sapiens, UniProt Q9NRM7)
Sequence of LATS2 (Q9NRM7 whole entry): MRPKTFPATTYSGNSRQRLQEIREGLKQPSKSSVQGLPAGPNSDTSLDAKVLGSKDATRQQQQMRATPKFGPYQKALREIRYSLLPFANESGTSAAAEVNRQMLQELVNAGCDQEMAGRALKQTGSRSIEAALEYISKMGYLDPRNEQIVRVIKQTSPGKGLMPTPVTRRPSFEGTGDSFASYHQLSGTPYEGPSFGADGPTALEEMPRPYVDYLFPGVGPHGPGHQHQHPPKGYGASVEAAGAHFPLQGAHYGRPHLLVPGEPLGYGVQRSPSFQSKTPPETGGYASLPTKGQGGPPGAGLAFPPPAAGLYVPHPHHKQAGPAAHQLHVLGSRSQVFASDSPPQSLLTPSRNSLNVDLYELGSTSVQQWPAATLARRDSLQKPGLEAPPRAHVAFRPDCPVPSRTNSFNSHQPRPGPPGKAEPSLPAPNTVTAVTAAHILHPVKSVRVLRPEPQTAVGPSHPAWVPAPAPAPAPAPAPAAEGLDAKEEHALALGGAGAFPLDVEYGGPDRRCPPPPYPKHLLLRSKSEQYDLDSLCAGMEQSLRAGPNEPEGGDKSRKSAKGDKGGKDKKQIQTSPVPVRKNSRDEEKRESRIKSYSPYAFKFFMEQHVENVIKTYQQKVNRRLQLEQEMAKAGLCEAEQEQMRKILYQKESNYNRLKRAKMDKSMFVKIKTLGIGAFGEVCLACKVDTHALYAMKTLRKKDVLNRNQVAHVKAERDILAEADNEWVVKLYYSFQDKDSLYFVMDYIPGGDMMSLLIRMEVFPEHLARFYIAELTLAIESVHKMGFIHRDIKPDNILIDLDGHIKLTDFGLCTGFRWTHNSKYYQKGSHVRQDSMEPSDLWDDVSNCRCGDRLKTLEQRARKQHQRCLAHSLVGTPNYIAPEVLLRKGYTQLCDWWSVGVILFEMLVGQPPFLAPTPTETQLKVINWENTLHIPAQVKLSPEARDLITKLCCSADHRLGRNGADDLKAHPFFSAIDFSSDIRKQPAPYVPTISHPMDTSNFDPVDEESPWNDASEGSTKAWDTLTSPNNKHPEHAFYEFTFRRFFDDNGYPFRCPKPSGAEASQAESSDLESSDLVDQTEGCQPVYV
Summary of the method: as §1

GSK3β = target: T2, GSK3β (Homo sapiens, UniProt P49841)
T2 construct: gene GSK3B
Summary of the method: as §1

WNK1 = WNK1 (Homo sapiens, UniProt Q9H4A3)
Summary of the method: as §1

PKCα = target: T3, PKCα (Homo sapiens, UniProt P17252)
T3 construct: gene PRKCA
Summary of the method: as §1

EPHA2 = EPHA2 (Homo sapiens, UniProt P29317)
Summary of the method: as §1

CaMK2δ = target: T4, CaMK2δ (Homo sapiens, UniProt Q13557)
T4 construct: gene CAMK2D
Summary of the method: as §1

EGFR(T790M/L858R) = EGFR(T790M/L858R) (Homo sapiens, UniProt P00533, L858R/T790M)
Summary of the method: as §1

ABL(T315I) = target: T5, ABL(T315I) (Homo sapiens, UniProt P00519, T315I)
T5 construct: gene ABL1
Summary of the method: as §1

PKR = target: T6, PKR (Homo sapiens, UniProt P19525)
T6 construct: gene EIF2AK2
Summary of the method: as §1

PKCδ = target: T7, PKCδ (Homo sapiens, UniProt Q05655)
T7 construct: gene PRKCD
T7 sequence (Q05655 whole entry): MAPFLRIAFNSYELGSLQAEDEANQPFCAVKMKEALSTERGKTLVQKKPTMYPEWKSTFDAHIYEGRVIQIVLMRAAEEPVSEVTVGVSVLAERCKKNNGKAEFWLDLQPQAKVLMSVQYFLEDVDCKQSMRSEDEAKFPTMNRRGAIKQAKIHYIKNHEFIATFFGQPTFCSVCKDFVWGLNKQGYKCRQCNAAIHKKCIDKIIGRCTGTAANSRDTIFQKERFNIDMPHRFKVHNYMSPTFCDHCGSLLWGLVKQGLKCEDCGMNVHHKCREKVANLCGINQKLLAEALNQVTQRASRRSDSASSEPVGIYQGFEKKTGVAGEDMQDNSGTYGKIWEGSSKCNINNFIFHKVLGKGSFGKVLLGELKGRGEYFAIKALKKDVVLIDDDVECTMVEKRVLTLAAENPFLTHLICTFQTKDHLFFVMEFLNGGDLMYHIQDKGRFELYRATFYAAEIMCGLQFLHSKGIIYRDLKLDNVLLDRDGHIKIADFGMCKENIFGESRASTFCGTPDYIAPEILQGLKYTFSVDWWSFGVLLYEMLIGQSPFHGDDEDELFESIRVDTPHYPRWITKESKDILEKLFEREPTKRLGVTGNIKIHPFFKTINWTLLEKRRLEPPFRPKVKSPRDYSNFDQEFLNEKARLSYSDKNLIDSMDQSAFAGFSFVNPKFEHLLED
Summary of the method: as §1

MARK3 = MARK3 (Homo sapiens, UniProt P27448)
Sequence of MARK3 (P27448 whole entry): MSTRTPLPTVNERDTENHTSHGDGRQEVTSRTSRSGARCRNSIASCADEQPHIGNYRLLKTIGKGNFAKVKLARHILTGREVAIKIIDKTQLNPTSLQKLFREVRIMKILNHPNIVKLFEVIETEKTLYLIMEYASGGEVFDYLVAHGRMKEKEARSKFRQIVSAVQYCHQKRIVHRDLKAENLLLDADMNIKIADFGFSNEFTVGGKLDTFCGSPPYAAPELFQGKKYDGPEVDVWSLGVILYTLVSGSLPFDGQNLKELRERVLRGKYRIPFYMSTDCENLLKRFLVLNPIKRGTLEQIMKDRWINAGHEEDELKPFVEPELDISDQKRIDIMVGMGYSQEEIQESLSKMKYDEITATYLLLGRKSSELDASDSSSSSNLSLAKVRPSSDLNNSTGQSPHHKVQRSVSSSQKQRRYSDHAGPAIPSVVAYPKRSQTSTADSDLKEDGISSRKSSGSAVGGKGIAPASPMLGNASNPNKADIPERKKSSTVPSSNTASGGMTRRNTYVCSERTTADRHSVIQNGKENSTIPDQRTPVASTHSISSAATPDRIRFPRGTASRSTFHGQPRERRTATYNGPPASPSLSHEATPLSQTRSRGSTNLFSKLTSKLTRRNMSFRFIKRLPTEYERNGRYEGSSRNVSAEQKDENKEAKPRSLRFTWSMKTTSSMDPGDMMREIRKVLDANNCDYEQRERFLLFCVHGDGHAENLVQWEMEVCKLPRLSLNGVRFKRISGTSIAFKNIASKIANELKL
Summary of the method: as §1

CK2α1/β = target: T8, CK2α1/β (Homo sapiens, UniProt P68400)
T8 construct: gene CSNK2A1
T8 sequence (P68400 whole entry): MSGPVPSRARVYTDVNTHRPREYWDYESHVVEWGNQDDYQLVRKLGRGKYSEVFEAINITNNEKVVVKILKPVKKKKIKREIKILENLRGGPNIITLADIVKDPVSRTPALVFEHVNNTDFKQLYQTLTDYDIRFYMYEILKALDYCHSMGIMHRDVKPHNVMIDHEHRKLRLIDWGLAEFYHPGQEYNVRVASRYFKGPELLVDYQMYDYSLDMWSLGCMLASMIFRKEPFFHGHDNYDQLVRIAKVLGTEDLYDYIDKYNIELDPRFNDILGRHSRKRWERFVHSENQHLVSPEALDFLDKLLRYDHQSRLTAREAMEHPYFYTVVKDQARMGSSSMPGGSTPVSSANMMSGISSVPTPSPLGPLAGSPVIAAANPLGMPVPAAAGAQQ
T8 sequence (P67870 whole entry partner): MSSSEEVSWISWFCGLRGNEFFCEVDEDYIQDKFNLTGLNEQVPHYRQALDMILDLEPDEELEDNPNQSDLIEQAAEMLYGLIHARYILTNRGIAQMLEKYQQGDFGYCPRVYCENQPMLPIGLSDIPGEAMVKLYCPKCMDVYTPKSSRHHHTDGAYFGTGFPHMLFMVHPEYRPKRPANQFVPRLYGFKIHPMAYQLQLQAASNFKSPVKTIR
Summary of the method: as §1

CaMK1δ = target: T9, CaMK1δ (Homo sapiens, UniProt Q8IU85)
T9 construct: gene CAMK1D
T9 sequence (Q8IU85 whole entry): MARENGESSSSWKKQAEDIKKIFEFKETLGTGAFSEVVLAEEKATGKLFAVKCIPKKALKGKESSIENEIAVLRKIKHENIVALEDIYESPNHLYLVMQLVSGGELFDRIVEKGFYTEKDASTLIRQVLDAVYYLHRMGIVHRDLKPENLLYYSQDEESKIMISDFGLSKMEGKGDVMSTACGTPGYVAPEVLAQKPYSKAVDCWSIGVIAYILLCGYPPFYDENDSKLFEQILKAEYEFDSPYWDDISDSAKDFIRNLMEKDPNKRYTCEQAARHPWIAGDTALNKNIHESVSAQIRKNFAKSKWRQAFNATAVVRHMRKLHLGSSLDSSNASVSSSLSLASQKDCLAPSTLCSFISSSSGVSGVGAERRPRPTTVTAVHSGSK
Summary of the method: as §1

HER2 = target: T10, HER2 (Homo sapiens, UniProt P04626)
T10 construct: gene ERBB2
Summary of the method: as §1

PYK2 = target: T11, PYK2 (Homo sapiens, UniProt Q14289)
T11 construct: gene PTK2B
Summary of the method: as §1

EPHB1 = EPHB1 (Homo sapiens, UniProt P54762)
Sequence of EPHB1 (P54762 whole entry): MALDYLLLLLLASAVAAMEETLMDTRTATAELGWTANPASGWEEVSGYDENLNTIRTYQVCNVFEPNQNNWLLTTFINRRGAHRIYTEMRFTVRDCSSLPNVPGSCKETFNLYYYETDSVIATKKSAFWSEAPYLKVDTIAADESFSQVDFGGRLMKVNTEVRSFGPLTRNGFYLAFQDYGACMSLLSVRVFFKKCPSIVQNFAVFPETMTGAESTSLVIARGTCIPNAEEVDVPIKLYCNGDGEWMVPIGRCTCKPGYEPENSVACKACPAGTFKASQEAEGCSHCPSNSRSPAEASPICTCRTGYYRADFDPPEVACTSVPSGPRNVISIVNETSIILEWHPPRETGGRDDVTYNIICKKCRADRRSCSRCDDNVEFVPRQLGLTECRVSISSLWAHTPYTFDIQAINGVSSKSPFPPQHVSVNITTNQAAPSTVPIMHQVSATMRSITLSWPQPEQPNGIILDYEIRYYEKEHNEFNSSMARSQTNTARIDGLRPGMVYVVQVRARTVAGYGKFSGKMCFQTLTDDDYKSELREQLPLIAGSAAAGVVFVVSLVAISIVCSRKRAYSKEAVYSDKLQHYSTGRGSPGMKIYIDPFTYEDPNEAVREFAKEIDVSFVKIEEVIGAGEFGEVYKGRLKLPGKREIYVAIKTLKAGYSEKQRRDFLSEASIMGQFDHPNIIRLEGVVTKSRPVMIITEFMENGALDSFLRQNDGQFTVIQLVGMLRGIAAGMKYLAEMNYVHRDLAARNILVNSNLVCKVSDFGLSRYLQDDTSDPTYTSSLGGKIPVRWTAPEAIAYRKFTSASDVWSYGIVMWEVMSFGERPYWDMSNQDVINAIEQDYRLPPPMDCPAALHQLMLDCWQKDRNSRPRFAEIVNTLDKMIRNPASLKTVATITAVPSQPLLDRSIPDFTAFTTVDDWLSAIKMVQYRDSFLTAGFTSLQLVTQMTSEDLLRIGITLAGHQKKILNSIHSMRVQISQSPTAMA
Summary of the method: as §1

CaMK2α = target: T12, CaMK2α (Homo sapiens, UniProt Q9UQM7)
T12 construct: gene CAMK2A
Summary of the method: as §1

PDGFRα(V561D) = target: T13, PDGFRα(V561D) (Homo sapiens, UniProt P16234, V561D)
T13 construct: gene PDGFRA
Summary of the method: as §1

FER = FER (Homo sapiens, UniProt P16591)
Summary of the method: as §1

MER = target: T14, MER (Homo sapiens, UniProt Q12866)
T14 construct: gene MERTK
Summary of the method: as §1

PAK1 = PAK1 (Homo sapiens, UniProt Q13153)
Sequence of PAK1 (Q13153 whole entry): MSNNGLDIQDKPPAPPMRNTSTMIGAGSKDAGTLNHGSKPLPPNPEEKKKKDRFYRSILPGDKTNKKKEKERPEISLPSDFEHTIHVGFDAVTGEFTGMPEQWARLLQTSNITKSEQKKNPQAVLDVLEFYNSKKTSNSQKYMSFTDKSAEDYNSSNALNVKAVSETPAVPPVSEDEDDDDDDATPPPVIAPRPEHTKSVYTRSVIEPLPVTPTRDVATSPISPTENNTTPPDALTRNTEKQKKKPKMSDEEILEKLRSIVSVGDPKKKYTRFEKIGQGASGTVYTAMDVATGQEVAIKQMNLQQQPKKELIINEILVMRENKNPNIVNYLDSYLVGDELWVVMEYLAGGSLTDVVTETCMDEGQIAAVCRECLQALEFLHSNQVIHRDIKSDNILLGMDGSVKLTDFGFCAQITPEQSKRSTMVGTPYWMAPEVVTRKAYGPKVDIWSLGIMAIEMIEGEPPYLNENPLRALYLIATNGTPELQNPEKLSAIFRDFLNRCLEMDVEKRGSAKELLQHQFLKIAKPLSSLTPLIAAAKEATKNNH
Summary of the method: as §1

PAK5 = PAK5 (Homo sapiens, UniProt Q9P286)
Summary of the method: as §1

skMLCK = target: T15, skMLCK (Homo sapiens, UniProt Q9H1R3)
T15 construct: gene MYLK2
Summary of the method: as §1

ABL(E255K) = target: T16, ABL(E255K) (Homo sapiens, UniProt P00519, E255K)
T16 construct: gene ABL1
Summary of the method: as §1

RET = RET (Homo sapiens, UniProt P07949)
Summary of the method: as §1

PDHK4 = target: T17, PDHK4 (Homo sapiens, UniProt Q16654)
T17 construct: gene PDK4
Summary of the method: as §1

FGFR4(V550L) = FGFR4(V550L) (Homo sapiens, UniProt P22455, V550L)
Summary of the method: as §1

Compound c1cc(-c2ccc3[nH]ncc3c2)ccn1 [TG693, 5-(4-pyridinyl)-1H-indazole] has an inhibition at 1 µM (TNK1) of 3.8%, an inhibition at 1 µM (CDC2/CycB1) of 10.3% and an inhibition at 1 µM (FES) of 1.3%. It also gave an inhibition at 1 µM (LATS2) of -3.8%, an inhibition at 1 µM (GSK3β) of 8.5% and an inhibition at 1 µM (WNK1) of 4.1%. It also gave an inhibition at 1 µM (PKCα) of -5.4%, an inhibition at 1 µM (EPHA2) of 5.7% and an inhibition at 1 µM (CaMK2δ) of 1.4%. The inhibition at 1 µM (EGFR(T790M/L858R)) was 1.3%, the inhibition at 1 µM (ABL(T315I)) was 6.5% and the inhibition at 1 µM (PKR) was 1.2%. For the same compound, the inhibition at 1 µM (PKCδ) was 1.5%, the inhibition at 1 µM (MARK3) was 15.5% and the inhibition at 1 µM (CK2α1/β) was 3.5%. It also gave an inhibition at 1 µM (CaMK1δ) of 7%, an inhibition at 1 µM (HER2) of -3.8% and an inhibition at 1 µM (PYK2) of 3.3%. It also gave an inhibition at 1 µM (EPHB1) of 2.5%, an inhibition at 1 µM (CaMK2α) of -3.3% and an inhibition at 1 µM (PDGFRα(V561D)) of 2.7%. For the same compound, the inhibition at 1 µM (FER) was 4.4%, the inhibition at 1 µM (MER) was 3% and the inhibition at 1 µM (PAK1) was -3.8%. It also gave an inhibition at 1 µM (PAK5) of -14%, an inhibition at 1 µM (skMLCK) of 0.9% and an inhibition at 1 µM (ABL(E255K)) of -4.2%. The inhibition at 1 µM (RET) was 4.8%, the inhibition at 1 µM (PDHK4) was 3.1% and the inhibition at 1 µM (FGFR4(V550L)) was -36.6%.
